Key:
Type in all cases: functional
MDA-MB-435 = assay: Cytotoxicity against human MDA-MB-435 cells
MCF7 = assay: Cytotoxicity against human MCF7 cells
SR = assay: Cytotoxicity against human SR cells
SK-MEL-5 = assay: Cytotoxicity against human SK-MEL-5 cells

Structure (SMILES) | GI50 (MDA-MB-435) | GI50 (MCF7) | GI50 (SR) | GI50 (SK-MEL-5)
CC/C=C\C=C/C(=O)N/C=C/CC1Cc2cccc(O)c2C(=O)O1 (racemic) | 11 µM | 49 µM | 2 µM | 27 µM
CC/C=C\C=C/C(=O)N/C=C/C[C@H]1C[C@@H](O)[C@@H](C)C/C=C/Cc2cccc(O)c2C(=O)O1 [SALICYLIHALAMIDE A] |  |  |  | 0.007 µM

From ChEMBL document CHEMBL1150257, “Synthesis and cytotoxicity of a salicylihalamide A analogue” (2008)
